From ChEMBL document CHEMBL4428099, “Identification of indole scaffold-based dual inhibitors of NOD1 and NOD2” (Bioorg Med Chem, 2016) come the findings set out here.

Common to all, as to type: cell-based
Series [1] deals with T1, Nucleotide-binding oligomerization domain-containing protein 1 (Homo sapiens) (UniProt Q9Y239).
T1 sequence (whole entry): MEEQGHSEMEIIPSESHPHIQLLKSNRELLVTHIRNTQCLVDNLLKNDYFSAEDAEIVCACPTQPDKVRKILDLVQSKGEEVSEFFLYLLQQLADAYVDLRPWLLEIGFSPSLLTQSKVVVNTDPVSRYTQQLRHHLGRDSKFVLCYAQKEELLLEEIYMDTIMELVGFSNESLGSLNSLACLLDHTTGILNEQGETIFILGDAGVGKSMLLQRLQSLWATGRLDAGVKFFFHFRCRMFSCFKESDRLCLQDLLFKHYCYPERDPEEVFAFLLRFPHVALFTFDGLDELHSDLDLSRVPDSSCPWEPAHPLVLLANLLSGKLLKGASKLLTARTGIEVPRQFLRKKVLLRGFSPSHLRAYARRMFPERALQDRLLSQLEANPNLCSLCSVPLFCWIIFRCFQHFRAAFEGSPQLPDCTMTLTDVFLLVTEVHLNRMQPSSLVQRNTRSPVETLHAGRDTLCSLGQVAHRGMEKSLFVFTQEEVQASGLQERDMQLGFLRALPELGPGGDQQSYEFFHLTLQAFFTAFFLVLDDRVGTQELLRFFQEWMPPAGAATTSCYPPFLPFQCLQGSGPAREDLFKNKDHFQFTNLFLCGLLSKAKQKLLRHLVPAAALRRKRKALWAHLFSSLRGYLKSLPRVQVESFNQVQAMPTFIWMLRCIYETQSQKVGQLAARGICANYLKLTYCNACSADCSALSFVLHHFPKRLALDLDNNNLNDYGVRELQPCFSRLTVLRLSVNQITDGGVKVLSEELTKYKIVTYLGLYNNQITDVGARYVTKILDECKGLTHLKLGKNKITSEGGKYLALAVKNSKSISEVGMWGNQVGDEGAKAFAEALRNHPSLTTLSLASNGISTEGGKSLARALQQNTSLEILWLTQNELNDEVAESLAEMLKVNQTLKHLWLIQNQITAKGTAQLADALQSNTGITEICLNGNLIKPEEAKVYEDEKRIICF
Briefly: Inhibition of human NOD1 over-expressed in HEK-Blue cells assessed as inhibition of […] NF-kappaB transcriptional activity measured as residual activity at 25 uM preincubated for 1 hr followed by addition of C12-iE-DAP measured after 18 hrs by SEAP reporter gene assay relative to control. Background: A reporter such as luciferase makes a cellular process visible.

Series [2] can be described thus: Cytotoxicity against HEK-Blue cells assessed as residual metabolic activity up to 25 uM measured after 24 hrs by MTS assay relative to untreated control. As to conditions: human, read-out: Activity.
In series [3] the target is Nucleotide-binding oligomerization domain-containing protein 2 (Homo sapiens, UniProt Q9HC29). In words: Inhibition of human NOD2 over-expressed in HEK-Blue cells assessed as inhibition of […] NF-kappaB transcriptional activity preincubated for 1 hr followed by addition of C12-iE-DAP measured after 18 hrs by SEAP reporter gene assay.
Chain of Nucleotide-binding oligomerization domain-containing protein 2 (Q9HC29 whole entry, the tested form may be a part): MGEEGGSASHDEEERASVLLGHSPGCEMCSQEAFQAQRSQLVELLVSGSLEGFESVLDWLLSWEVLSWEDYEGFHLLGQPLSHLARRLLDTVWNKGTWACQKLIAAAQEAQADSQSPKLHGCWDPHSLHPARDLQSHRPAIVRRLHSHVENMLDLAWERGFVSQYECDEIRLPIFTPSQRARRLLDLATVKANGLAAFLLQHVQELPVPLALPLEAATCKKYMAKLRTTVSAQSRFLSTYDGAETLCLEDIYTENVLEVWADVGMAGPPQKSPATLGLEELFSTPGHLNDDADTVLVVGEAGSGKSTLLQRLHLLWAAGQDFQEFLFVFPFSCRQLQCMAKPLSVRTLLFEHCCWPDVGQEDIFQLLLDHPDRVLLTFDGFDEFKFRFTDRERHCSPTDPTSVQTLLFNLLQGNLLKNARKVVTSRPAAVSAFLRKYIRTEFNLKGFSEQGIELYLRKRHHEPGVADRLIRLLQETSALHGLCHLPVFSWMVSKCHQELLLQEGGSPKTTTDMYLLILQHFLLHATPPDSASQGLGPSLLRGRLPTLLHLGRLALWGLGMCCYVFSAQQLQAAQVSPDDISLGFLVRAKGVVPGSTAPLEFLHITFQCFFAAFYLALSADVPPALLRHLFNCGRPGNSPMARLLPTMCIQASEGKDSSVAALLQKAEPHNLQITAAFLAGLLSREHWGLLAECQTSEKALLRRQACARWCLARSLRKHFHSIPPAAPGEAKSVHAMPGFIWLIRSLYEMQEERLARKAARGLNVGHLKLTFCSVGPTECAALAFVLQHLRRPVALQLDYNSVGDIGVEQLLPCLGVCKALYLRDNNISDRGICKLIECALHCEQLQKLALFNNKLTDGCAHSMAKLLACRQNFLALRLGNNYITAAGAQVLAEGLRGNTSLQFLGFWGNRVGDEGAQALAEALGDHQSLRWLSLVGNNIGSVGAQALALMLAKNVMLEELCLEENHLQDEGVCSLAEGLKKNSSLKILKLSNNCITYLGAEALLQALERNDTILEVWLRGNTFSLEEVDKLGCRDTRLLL
The target in series [4] is T2, Nucleotide-binding oligomerization domain-containing protein 1 (Homo sapiens, UniProt Q9Y239).
T2 sequence (Q9Y239 whole entry): T1 sequence (whole entry)
In words: Inhibition of human NOD1 over-expressed in HEK-Blue cells assessed as inhibition of […] NF-kappaB transcriptional activity preincubated for 1 hr followed by addition of C12-iE-DAP measured after 18 hrs by SEAP reporter gene assay.

Active and inactive are the calls of the source. No cut-off for these calls is given here.

On to `CC(C)c1ccc(CN2C(=N)Cc3ccccc32)cc1`, for which, in series [1], the outcome was inactive. Moreover, the viability at 24 h in series [2] is not below 80%.

Take `CCOC(=O)c1cc2ccccc2n1S(=O)(=O)c1ccc(C(F)(F)F)cc1`: the Activity in series [1] worked out at 37%. In series [2], the viability at 24 h was not below 80%.

In the case of `CCOC(=O)c1cc2ccccc2n1Cc1ccc(C(C)C)cc1`, the Activity in series [1] was 42%. The viability at 24 h in series [2] is not below 80%.

Consider `CCOC(=O)c1cc2ccccc2n1Cc1ccc(C(F)(F)F)cc1`, for which, in series [1], the Activity came to 46%. Also, the viability at 24 h in series [2] was not below 80%.

Turning to `Cc1ccc(S(=O)(=O)n2c(C(=O)NN)cc3ccccc32)cc1`, in series [1], the Activity turned out to be 68%. Moreover, the viability at 24 h in series [2] is not below 80%.

Take `CCOC(=O)c1cc2ccccc2n1S(=O)(=O)c1ccc(C)cc1`: the Activity in series [1] was 24%. In addition, the viability at 24 h in series [2] is not below 80%. For the same compound, the IC50 – broadly, the concentration needed to halve the response being measured – in series [3] turned out to be 6.45 µM; in series [4] it was 5.74 µM.

With `N=C1Cc2ccccc2N1Cc1ccc(Br)cc1`, the outcome in series [1] was inactive. In series [2], the viability at 24 h is not below 80%.

Consider `CCOC(=O)c1cc2ccccc2n1Cc1ccc(C)cc1`, for which, in series [1], the Activity turned out to be 24%. The viability at 24 h in series [2] was not below 80%. The IC50 amounted to 9.04 µM in series [3] and 7.78 µM in series [4].

For the compound `Cc1ccc(S(=O)(=O)n2c(C(=O)O)cc3ccccc32)cc1`, in series [2], the viability at 24 h was not below 80%.

Take `O=C(O)c1cc2ccccc2n1Cc1ccc(Cl)cc1`: the viability at 24 h in series [2] was not below 80%.

Take `N=C1Cc2ccccc2N1Cc1ccc(Cl)cc1`: in series [1], the Activity was 44%. Moreover, in series [2], the viability at 24 h was not below 80%. The figures for the IC50 in series [3] and in series [4] were more than 25 µM and 15.7 µM, respectively.

As to `CCOC(=O)c1cc2ccccc2n1Cc1ccc(Cl)cc1`, the Activity in series [1] is 29%. Also, in series [2], the viability at 24 h is not below 80%.

Regarding `Cc1ccc(CN2C(=N)Cc3ccccc32)cc1`, in series [1], the outcome was inactive. Moreover, in series [2], the viability at 24 h is not below 80%.

On to `CCOC(=O)c1cc2ccccc2n1Cc1ccc(Br)cc1`, for which, in series [1], the Activity is 45%. In addition, the viability at 24 h in series [2] was not below 80%.

Turning to `CC(C)(C)OC(=O)Nc1cc2ccccc2n1Cc1ccc(Cl)cc1`, in series [2], the viability at 24 h was not below 80%.

Take `Cc1ccc(S(=O)(=O)n2c(NC(=O)OC(C)(C)C)cc3ccccc32)cc1`: the viability at 24 h in series [2] was not below 80%.

As to `CCOC(=O)c1cc2ccccc2n1S(=O)(=O)c1ccc(F)cc1`, the Activity in series [1] amounted to 24%. The viability at 24 h in series [2] was not below 80%. The half-inhibitory concentration (IC50) turned out to be 12.6 µM in series [3] and 9.22 µM in series [4].

As for `CCOC(=O)c1cc2ccccc2n1Cc1ccc(F)cc1`, the Activity in series [1] amounted to 53%. For the same compound, the viability at 24 h in series [2] is not below 80%.

As to `Cc1ccc(S(=O)(=O)n2c(C(N)=O)cc3ccccc32)cc1`, the Activity in series [1] is 76%. For the same compound, in series [2], the viability at 24 h is not below 80%.

Regarding `N=C1Cc2ccccc2N1Cc1ccc(C2CC2)cc1`, the outcome in series [1] was inactive. Moreover, the viability at 24 h in series [2] was not below 80%.

On to `N=C1Cc2ccccc2N1Cc1ccc(C(F)(F)F)cc1`, for which the outcome in series [1] was inactive. In addition, in series [2], the viability at 24 h was not below 80%.

Regarding `Cc1ccc(S(=O)(=O)n2c(N)nc3ccccc32)cc1`, the Activity in series [1] is 9%. The viability at 24 h in series [2] was not below 80%. Also, the IC50 in series [3] came to 54.9 µM.

Consider `N=C1Cc2ccccc2N1Cc1ccccc1`, for which the Activity in series [1] stood at 72%. In series [2], the viability at 24 h is not below 80%.

In the case of `CCOC(=O)c1cc2ccccc2n1S(=O)(=O)c1ccc([N+](=O)[O-])cc1`, the Activity in series [1] stood at 27%. The viability at 24 h in series [2] is not below 80%. For the same compound, the concentration for half-maximal inhibition (IC50) in series [3] turned out to be 16.9 µM; in series [4] it was 15 µM.

For `CCOC(=O)c1cc2ccccc2n1Cc1ccccc1`, the Activity in series [1] came to 58%. Further, the viability at 24 h in series [2] is not below 80%.

Regarding `CCOC(=O)c1cc2ccccc2n1S(=O)(=O)c1ccc(OC)cc1`, the Activity in series [1] is 36%. Also, the viability at 24 h in series [2] is not below 80%.

In the case of `Cc1ccc(S(=O)(=O)N2C(=N)Cc3ccccc32)cc1`, the viability at 24 h in series [2] is not below 80%.

Consider `CCOC(=O)c1cc2ccccc2n1S(=O)(=O)c1ccc(Cl)cc1`, for which the Activity in series [1] is 30%. Besides, in series [2], the viability at 24 h was not below 80%. Further, the IC50 in series [3] was found to be 23.4 µM; in series [4], 19.8 µM.

In the case of `CCOC(=O)c1cc2ccccc2n1C(=O)c1ccc(C)cc1`, the viability at 24 h in series [2] was not below 80%. Further, the figures for the half-maximal inhibitory concentration (IC50) in series [3] and in series [4] were 24.6 µM and 16 µM, respectively.

As for `CCOC(=O)c1cc2ccccc2n1Cc1ccc(C2CC2)cc1`, the Activity in series [1] was 39%. Also, in series [2], the viability at 24 h was not below 80%.
